Data taken from article PMC9454848, “BMS-986158, a Small Molecule Inhibitor of the Bromodomain and Extraterminal Domain Proteins, in Patients with Selected Advanced Solid Tumors: Results from a Phase 1/2a Trial” (Cancers, 2022).
Read-outs that look alike come from different tables or passages of the source.

Assay: Plasma pharmacokinetics after single dose (C1D1), LC-MS/MS
Assay type: in vivo, human
Conditions: for half-life / Vd/F / AUC(0-t) / Tmax / Cmax: human, plasma, oral
Method: At C1D1 in every dosing schedule cohort, a single dose was administered followed by 168 h (i.e., 7 days) of intensive PK sampling. Following cycle 1, the multiple-dose treatment schedules (described above) began in cycle 2. PK parameters were derived following single dose combined across all schedules and multiple doses at cycle 2 for each schedule. […] PK assessments were evaluated for BMS-986158 and its metabolite using plasma samples at regular intervals. Both the parent and metabolite samples were simultaneously analyzed using a validated liquid chromatography and tandem mass spectrometry assay.
All treated patients who received ≥1 dose of BMS-986158 were evaluated in the safety population. […] All treated patients with available and sufficient serum or plasma samples for the corresponding analytes were included in the PK analyses. […] ECG parameters were evaluated in a categorical analysis, and linear mixed-effects regression modeling was used to describe the quantitative relationship between ΔQTcF and time-matched serum concentrations of BMS-986158 or its metabolite at a single dose.

Dose proportionality of plasma concentrations (0.75–4.5 mg): dose proportional
half-life (0.75 mg, cohort Schedule A, 0.75 mg, n = 4, read-out: Effective T1/2, mean (SD) (converted)): 33.7 h
Vd/F (0.75 mg, cohort Schedule A, 0.75 mg, n = 4, read-out: Vz/F, GM (%CV)): 14.7 L
AUC(0-t) (0.75 mg, cohort Schedule A, 0.75 mg, n = 5, read-out: AUC(0–24), GM (%CV)): 1030 ng·h/mL
AUC(0-t) (0.75 mg, cohort Schedule A, 0.75 mg, n = 5, read-out: AUC(0–T), GM (%CV)): 2150 ng·h/mL
Tmax (0.75 mg, cohort Schedule A, 0.75 mg, n = 5, read-out: Tmax, median): 4 h
Cmax (0.75 mg, cohort Schedule A, n = 5): 68.8 ng/mL
AUC(0-t) (1.25 mg, cohort Schedule A, 1.25 mg, n = 3, read-out: AUC(0–24), GM (%CV)): 2310 ng·h/mL
AUC(0-t) (1.25 mg, cohort Schedule A, 1.25 mg, n = 3, read-out: AUC(0–T), GM (%CV)): 6370 ng·h/mL
half-life (1.25 mg, cohort Schedule A, 1.25 mg, n = 3, read-out: Effective T1/2, mean (SD) (converted)): 48.7 h
Tmax (1.25 mg, cohort Schedule A, 1.25 mg, n = 3, read-out: Tmax, median): 1 h
Vd/F (1.25 mg, cohort Schedule A, 1.25 mg, n = 3, read-out: Vz/F, GM (%CV)): 12.5 L
Cmax (1.25 mg, cohort Schedule A, n = 3): 175 ng/mL
half-life (2 mg, cohort Schedule A, 2.0 mg, n = 4, read-out: Effective T1/2, mean (SD) (converted)): 41.4 h
Vd/F (2 mg, cohort Schedule A, 2.0 mg, n = 4, read-out: Vz/F, GM (%CV)): 14.6 L
AUC(0-t) (2 mg, cohort Schedule A, 2.0 mg, n = 9, read-out: AUC(0–24), GM (%CV)): 3610 ng·h/mL
AUC(0-t) (2 mg, cohort Schedule A, 2.0 mg, n = 9, read-out: AUC(0–T), GM (%CV)): 8560 ng·h/mL
Tmax (2 mg, cohort Schedule A, 2.0 mg, n = 9, read-out: Tmax, median): 2 h
Cmax (2 mg, cohort Schedule A, n = 9): 260 ng/mL
AUC(0-t) (2 mg, cohort Schedule B, 2.0 mg, n = 1, read-out: AUC(0–24), GM (%CV)): 2360 ng·h/mL
AUC(0-t) (2 mg, cohort Schedule B, 2.0 mg, n = 1, read-out: AUC(0–T), GM (%CV)): 5200 ng·h/mL
half-life (2 mg, cohort Schedule B, 2.0 mg, n = 1, read-out: Effective T1/2, mean (SD) (converted)): 44.2 h
Tmax (2 mg, cohort Schedule B, 2.0 mg, n = 1, read-out: Tmax, median): 1 h
Vd/F (2 mg, cohort Schedule B, 2.0 mg, n = 1, read-out: Vz/F, GM (%CV)): 23.2 L
Cmax (2 mg, cohort Schedule B, n = 1): 207 ng/mL
AUC(0-t) (2 mg, cohort Schedule C, 2.0 mg, n = 6, read-out: AUC(0–24), GM (%CV)): 3660 ng·h/mL
AUC(0-t) (2 mg, cohort Schedule C, 2.0 mg, n = 6, read-out: AUC(0–T), GM (%CV)): 10900 ng·h/mL
half-life (2 mg, cohort Schedule C, 2.0 mg, n = 6, read-out: Effective T1/2, mean (SD) (converted)): 64.6 h
Tmax (2 mg, cohort Schedule C, 2.0 mg, n = 6, read-out: Tmax, median): 1 h
Vd/F (2 mg, cohort Schedule C, 2.0 mg, n = 6, read-out: Vz/F, GM (%CV)): 13.9 L
Cmax (2 mg, cohort Schedule C, n = 6): 295 ng/mL
half-life (3 mg, cohort Schedule A, 3.0 mg, n = 7, read-out: Effective T1/2, mean (SD) (converted)): 33.3 h
Vd/F (3 mg, cohort Schedule A, 3.0 mg, n = 7, read-out: Vz/F, GM (%CV)): 12.8 L
AUC(0-t) (3 mg, cohort Schedule A, 3.0 mg, n = 10, read-out: AUC(0–24), GM (%CV)): 4940 ng·h/mL
AUC(0-t) (3 mg, cohort Schedule A, 3.0 mg, n = 10, read-out: AUC(0–T), GM (%CV)): 10500 ng·h/mL
Tmax (3 mg, cohort Schedule A, 3.0 mg, n = 10, read-out: Tmax, median): 2 h
Cmax (3 mg, cohort Schedule A, n = 10): 328 ng/mL
half-life (3 mg, cohort Schedule B, 3.0 mg, n = 1, read-out: Effective T1/2, mean (SD) (converted)): 54 h
Vd/F (3 mg, cohort Schedule B, 3.0 mg, n = 1, read-out: Vz/F, GM (%CV)): 15.3 L
AUC(0-t) (3 mg, cohort Schedule B, 3.0 mg, n = 4, read-out: AUC(0–24), GM (%CV)): 6920 ng·h/mL
AUC(0-t) (3 mg, cohort Schedule B, 3.0 mg, n = 4, read-out: AUC(0–T), GM (%CV)): 28900 ng·h/mL
Tmax (3 mg, cohort Schedule B, 3.0 mg, n = 4, read-out: Tmax, median): 1.03 h
Cmax (3 mg, cohort Schedule B, n = 4): 481 ng/mL
half-life (3 mg, cohort Schedule C, 3.0 mg, n = 10, read-out: Effective T1/2, mean (SD) (converted)): 48.2 h
Vd/F (3 mg, cohort Schedule C, 3.0 mg, n = 10, read-out: Vz/F, GM (%CV)): 15.6 L
AUC(0-t) (3 mg, cohort Schedule C, 3.0 mg, n = 11, read-out: AUC(0–24), GM (%CV)): 4470 ng·h/mL
AUC(0-t) (3 mg, cohort Schedule C, 3.0 mg, n = 11, read-out: AUC(0–T), GM (%CV)): 11500 ng·h/mL
Tmax (3 mg, cohort Schedule C, 3.0 mg, n = 11, read-out: Tmax, median): 1 h
Cmax (3 mg, cohort Schedule C, n = 11): 370 ng/mL
half-life (4.5 mg, cohort Schedule A, 4.5 mg, n = 9, read-out: Effective T1/2, mean (SD) (converted)): 48.3 h
Vd/F (4.5 mg, cohort Schedule A, 4.5 mg, n = 9, read-out: Vz/F, GM (%CV)): 15.7 L
AUC(0-t) (4.5 mg, cohort Schedule A, 4.5 mg, n = 10, read-out: AUC(0–24), GM (%CV)): 6790 ng·h/mL
AUC(0-t) (4.5 mg, cohort Schedule A, 4.5 mg, n = 10, read-out: AUC(0–T), GM (%CV)): 19100 ng·h/mL
Tmax (4.5 mg, cohort Schedule A, 4.5 mg, n = 10, read-out: Tmax, median): 2.04 h
Cmax (4.5 mg, cohort Schedule A, n = 10): 478 ng/mL
half-life (4.5 mg, cohort Schedule C, 4.5 mg, n = 5, read-out: Effective T1/2, mean (SD) (converted)): 35.7 h
Vd/F (4.5 mg, cohort Schedule C, 4.5 mg, n = 5, read-out: Vz/F, GM (%CV)): 11.6 L
AUC(0-t) (4.5 mg, cohort Schedule C, 4.5 mg, n = 7, read-out: AUC(0–24), GM (%CV)): 7420 ng·h/mL
AUC(0-t) (4.5 mg, cohort Schedule C, 4.5 mg, n = 7, read-out: AUC(0–T), GM (%CV)): 17200 ng·h/mL
Tmax (4.5 mg, cohort Schedule C, 4.5 mg, n = 7, read-out: Tmax, median): 2.02 h
Cmax (4.5 mg, cohort Schedule C, n = 7): 567 ng/mL
Tmax (0.75–4.5 mg, read-out: Time to peak plasma concentration (median Tmax)): 1 to 4 h
half-life (read-out: Mean T1/2, range across doses): 34 to 54 h
SMILES: Cc1nnn(C)c1-c1cnc2c3ccc(C(C)(C)O)cc3n([C@H](c3ccccc3)C3CCOCC3)c2c1 [BMS-986158]
